Test results published in US10344001B2, “Azolylacryloyl derivatives as therapeutic agents for sickle cell disease” (VIRGINIA COMMONWEALTH UNIVERSITY, priority 2015, dated 2019).

Legend:
Hb in normal whole blood = biological target: T1, Hb in normal whole blood (Homo sapiens, UniProt P68871+P69905); experiment: Oxygen equilibrium curve (OEC) study in normal whole blood, multipoint tonometry; assay type: cell-based; details: hematocrit 20%, 1.5 h at 37° C.
T1 construct: Normal whole blood was collected from adult donors at the Virginia Commonwealth University; endogenous in cells; host or cells: erythrocytes in normal adult human whole blood (hematocrit 20%)
T1 sequence (P69905 2-142 limits assumed): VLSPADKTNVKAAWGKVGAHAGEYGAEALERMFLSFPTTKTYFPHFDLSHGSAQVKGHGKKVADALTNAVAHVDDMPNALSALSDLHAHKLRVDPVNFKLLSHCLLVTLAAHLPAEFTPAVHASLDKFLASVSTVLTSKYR
T1 sequence (P68871 2-147 limits assumed): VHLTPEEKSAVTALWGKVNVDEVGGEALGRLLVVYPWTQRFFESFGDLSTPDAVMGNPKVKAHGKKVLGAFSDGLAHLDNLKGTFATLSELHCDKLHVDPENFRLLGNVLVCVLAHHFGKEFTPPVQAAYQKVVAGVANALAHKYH
Text: (§1) De-identified, leftover EDTA venous blood samples from patients with SCD who visited The Children's Hospital of Philadelphia for routine clinic visits, were obtained after informed consent and used for antisickling study. Normal whole blood was collected from adult donors at the Virginia Commonwealth University after informed consent and used for oxygen equilibrium curve study. Hb was purified from discarded normal blood samples following published procedure and used for OEC study^34. The use of these human samples is in accordance with regulations of the IRB for Protection of Human Subjects.
The ability of the KAUS compounds to left-shift the OEC (stabilize the R-state and/or destabilize the T-state) and increase the oxygen affinity of Hb in normal whole blood or free human hemoglobin was determined by multipoint tonometry as previously reported^20. First, cell free normal human hemoglobin (1 mM) or normal whole blood (hematocrit of 20%) was incubated with 1 mM or 2 mM final test compound (KAUS-28, KAUS-29, KAUS-33, KAUS-38 or KAUS-39) for 1.5 h at 37° C. Following incubation, the mixture was equilibrated in a tonometer with oxygen tensions of 6, 20 and 60 mmHg for 10 min each, and pO2 (mmHg) and sO2 (%) values were measured thereafter using ABL 700 series automated blood gas analyzer (Radiometer America, Inc., Westlake, Ohio). The measured values of pO2 and sO2 at each oxygen tension level were then subjected to a non-linear regression analysis using the program Scientist (Micromath, Salt Lake City, Utah) to calculate P50 and the Hill coefficient (N) values. Time-dependent OEC studies (1 hr, 4 hr, 8 hr and 12 hr) were also performed for KAUS-28, KAUS-33, KAUS-38, and KAUS-39 at final compound concentration of 2 mM. ECA and the previously studied azolylacryloyl-carboxylate derivative, KAUS-15 were used as positive controls. Compounds were dissolved in DMSO to make 100-250 mM stock solutions, and DMSO was used in all control samples. All OEC studies were performed in duplicates.

[1] = tested on: SS cells (sickle red blood cells); experiment: RBC morphological antisickling study under hypoxic condition; assay type: cell-based, human; details: 2 mM compound, 1 hr under air, then 4% oxygen/96% nitrogen at 37° C. for 5 hrs; for inhibition at 2000 µM: Homo sapiens, Erythrocyte, read-out: Reduction (inhibition) of RBC sickling
Text: as §1
KAUS-38 and KAUS-39 at 2 mM concentrations were tested for their abilities to prevent RBC sickling under hypoxic condition following previously reported assay^20. Briefly SS cells were suspended in Hemox buffer (TCS Scientific Corp, Southampton, Pa.), pH 7.4, that contained 10 mM glucose and 0.2% bovine serum albumin. The solution was incubated under air in the absence (control) or presence of […] 2 mM concentration of test compound at 37° C. for 1 hr. Following, the suspension was incubated under hypoxic condition (4% oxygen/96% nitrogen) at 37° C. for 5 hrs. The suspension was fixed with 2% glutaraldehyde solution without exposure to air and then subjected to microscopic morphological analysis as previously reported […]

[2] = Reactivity toward free L-cysteine (UPLC-MS of compound and adduct); details: incubated with L-Cys for 3 hours; for Ratio of Cpd/Adduct (Adduct peak): share of L-cysteine adduct peak; for Ratio of Cpd/Adduct (Compound peak): share of unreacted compound peak; for Reactivity with L-Cys (adduct share): values in text
Text: The above synthesized KAUS compounds were expected to covalently bind to Hb through a Michael addition reaction with the βCys93 at the surface of the protein to effect their allosteric and antisickling activities. We therefore investigated L-Cys conjugates with KAUS-28, KAUS-29, KAUS-33, KAUS-38 and KAUS-39 with ECA as a positive control using UPLC-MS analysis as previously described^20 with an Acquity H-Class UPLC which is connected to a PDA detector and an Acquity TQD detector. The column used was an Acquity UPLC BEH C18 1.7 μm, 2.1×50 mm, with a Vanguard pre-column attached. Solvent A consisted of water with 0.02% formic acid, while solvent B consisted of 90:10 acetonitrile:water with 0.02% formic acid. A gradient run was performed such that solvent B was increased from 0% B to 100% B from time 0-5 mins, followed by 3 minute wash at 100% B and then a return and re-equilibration at 100% A in the next 4 mins. The flow rate was maintained at 0.5 ml/min throughout the run. 2 μL of sample was injected per run. […] The eluent was then introduced into the TQD detector. The TQD detector was set at positive ionization mode with a capillary voltage of 3.20 kV, cone voltage of 20 V, extractor voltage of 1 V, and RF lens voltage of 0.1 V. The source temperature was set at 150° C., while the desolvation temperature was set at 350° C. and the desolvation and cone gas flows were set at 650 and 50 L/hr respectively. Scans were made from 100-700 m/z with scan duration of 0.5 seconds to obtain mass spectra at different time points.

[3] = biological target: T2, cell free normal human hemoglobin (Homo sapiens, UniProt P68871+P69905); experiment: Oxygen equilibrium curve (OEC) study with cell free hemoglobin, multipoint tonometry; assay type: biochemical; details: cell free normal human hemoglobin 1 mM; 1 mM or 2 mM compound
T2 construct: Hb was purified from discarded normal blood samples following published procedure and used for OEC study; from tissue; host or cells: discarded normal human blood samples
T2 sequence (P69905 2-142 limits assumed): as the sequence (P69905 2-142 limits assumed) above
T2 sequence (P68871 2-147 limits assumed): as the sequence (P68871 2-147 limits assumed) above
Text: as §1
The ability of the KAUS compounds to left-shift the OEC (stabilize the R-state and/or destabilize the T-state) and increase the oxygen affinity of Hb in normal whole blood or free human hemoglobin was determined by multipoint tonometry as previously reported^20. […] Following incubation, the mixture was equilibrated in a tonometer with oxygen tensions of 6, 20 and 60 mmHg for 10 min each, and pO2 (mmHg) and sO2 (%) values were measured thereafter using ABL 700 series automated blood gas analyzer (Radiometer America, Inc., Westlake, Ohio). The measured values of pO2 and sO2 at each oxygen tension level were then subjected to a non-linear regression analysis using the program Scientist (Micromath, Salt Lake City, Utah) to calculate P50 and the Hill coefficient (N) values. […]

| SMILES | OEC effect (increase of Hb affinity for oxygen, left shift) (Hb in normal whole blood; 1 mM compound) [%] | OEC effect (increase of Hb affinity for oxygen, left shift) (Hb in normal whole blood; 2 mM compound) [%] | inhibition at 2000 µM [1] [%] | Ratio of Cpd/Adduct (Adduct peak) [2] | Ratio of Cpd/Adduct (Compound peak) [2] | melting point | Reactivity with L-Cys (adduct share) [2] [%] | Effect on Hb affinity for oxygen in cell free Hb (in words) [3] | Reduction (inhibition) of RBC sickling [1] [%] |
| --- | --- | --- | --- | --- | --- | --- | --- | --- | --- |
| C=C(CC)C(=O)c1ccc(OCC(=O)O)c(Cl)c1Cl [Ethacrynic Acid, ethacrynic acid, reference compound] | 6.1 | 21.3 | 18 | 96.3 | 3.7 |  |  |  |  |
| O=C(/C=C/c1ncc[nH]1)c1ccccc1 [KAUS-28, (E)-3-(1H-imidazol-2-yl)-1-phenylprop-2-en-1-one] |  |  |  | 6.9 | 93.1 |  |  |  |  |
| COc1cc(C(=O)/C=C/c2ncc[nH]2)ccc1O [KAUS-36, (E)-1-(4-hydroxy-3-methoxyphenyl)-3-(1H-imidazol-2-yl)prop-2-en-1-one] |  |  |  |  |  | > 250 °C (dec.) |  |  |  |
| O=C(/C=C/c1ncc[nH]1)c1ccc(O)cc1 [KAUS-32, (E)-1-(4-hydroxyphenyl)-3-(1H-imidazol-2-yl)prop-2-en-1-one] |  |  |  |  |  | 250 to 253 °C |  |  |  |
| COc1ccc(C(=O)/C=C/c2ncc[nH]2)cc1OC [KAUS-39, (E)-1-(3,4-dimethoxyphenyl)-3-(1H-imidazol-2-yl)prop-2-en-1-one] |  |  | 5 | 27.2 | 72.8 | 222 to 223 °C | 27.2 |  |  |
| O=C(/C=C/c1ncc[nH]1)c1ccc(OC2CCCCO2)cc1 (stereo not shown) [KAUS-33, (E)-3-(1H-imidazol-2-yl)-1-(4-((tetrahydro-2H-pyran-2-yl)oxy)phenyl)prop-2-en-1-one] | 9.9 | 16.5 |  | 24.8 | 75.2 |  | 24.8 |  |  |
| O=C(O)CCCOc1ccc(C(=O)/C=C/c2ncc[nH]2)cc1Cl [KAUS-15, reference compound] | 1 | 7 |  |  |  |  |  | significantly more potent effect with cell free Hb than with whole blood | 6 |
| COc1cccc(C(=O)/C=C/c2ncc[nH]2)c1 [KAUS-29, (E)-3-(1H-imidazol-2-yl)-1-(3-methoxyphenyl)prop-2-en-1-one] | 8 | 14 |  | 2.1 | 97.9 |  |  |  |  |
| O=C(/C=C/c1ncc[nH]1)c1ccc(OCc2ccccc2)cc1 [KAUS-34, (E)-1-(4-(benzyloxy)phenyl)-3-(1H-imidazol-2-yl)prop-2-en-1-one] |  |  |  |  |  | > 250 °C (dec.) |  |  |  |
| COc1ccc(C(=O)/C=C/c2ncc[nH]2)cc1 [KAUS-38, (E)-3-(1H-imidazol-2-yl)-1-(4-methoxyphenyl)prop-2-en-1-one] | 8 | 14 | 18 | 37.8 | 62.2 |  | 37.8 |  |  |
